Data published in patent US5244916A, “Inhibition of respiratory burst using posttranslational modification inhibitors” (The Scripps Research Institute, priority 1992, dated 1993).

Tested on: NADPH oxidase
Test: Cell-free O2- formation by subcellular fractions from compactin-treated HL-60 cells, complemented with human neutrophil fractions, SDS-initiated
Assay type: biochemical
Conditions: for Rate of O2 formation / Rate, percent of respective untreated HL-60 sample: 10 μM
Procedure: The cells were then pelleted and resuspended in 10 mM Pipes pH 7.3, 100 mM KCl, 3 mM NaCl, 1 mM ATP, 3.5mM MgCl2 (Relax buffer) plus 100U aprotonin/ml, 1 mM PMSF, and 0.34M sucrose to a final concentration of about 1×10^8 /ml. […] Louis, MO), 6.25 mM MgCl2, 93 mM KCl, 2.8 mM NaCl, 9.3 mM Pipes pH 7.3, 0.8mM ATP, 0.16 mM NADPH, 10 μM GTPgammaS, 225 μg HL-60 cytosol, or 250 μg ([…]; cell equivalents) of human neutrophil cytosol and ±300μg/ml SOD (Sigma Chemical Co., St. Louis, MO). After a three-minute equilibration at 25° C., the formation of O2 --was initiated by the addition of 100 μM SDS. O2 --generation was monitored continuously as the SOD-sensitive reduction of cytochrome c at 550 nm. Human neutrophil plasma membranes (gamma-GSP) and cytosol (GSS) were prepared as described in (Curnutte, et al., suora (1987)). […] To localize the compactin-sensitive factor required for NADPH oxidase activity to either the cytosol, membrane, or both, subcellular fractions from control or compactin-treated differentiated HL-60 cells were prepared. The membrane fraction and cytosol from the cells were then analyzed using the cell-free NADPH oxidase system. […] HL-60 cells were treated ±10 μM compactin, as described herein. Untreated cytosol/membrane and compactin cytosol/membrane, etc., refer to the fractions obtained from these cells. Values are the result of duplicate determinations within each experiment. Values in parentheses represent the percent of the rate obtained for the respective untreated HL-60 sample. Whether the inhibited factor(s) was present in the membrane fraction or cytosol was determined via performing complementation experiments using cytosol or membranes from normal human neutrophils. Data from these experiments is illustrated above in Table 3 and in FIG. 2. FIG. 2 illustrates complementation analysis of O2 -formation by control versus compactin-treated HL-60 cells. O2 --formation was analyzed in a cell-free assay as described in the Examples. Line A represents untreated HL-60 membrane +neutrophil GSS; line B represents compactin-treated HL-60 membrane+neutrophil GSS; line C represents untreated HL-60 cytosol+neutrophil gamma GSP; line D represents compactin-treated HL-60 cytosol+neutrophil gamma GSP.

[1] = Exp. 1, compactin cytosol + compactin membrane
[2] = Exp. 1, compactin cytosol + neutrophil membrane
[3] = Exp. 1, neutrophil cytosol + compactin membrane
[4] = Exp. 2, compactin cytosol + compactin membrane
[5] = Exp. 2, compactin cytosol + neutrophil membrane
[6] = Exp. 2, neutrophil cytosol + compactin membrane
[7] = Exp. 3, compactin cytosol + neutrophil membrane
[8] = Exp. 3, neutrophil cytosol + compactin membrane

SMILES: CC[C@H](C)C(=O)O[C@H]1CCC=C2C=C[C@H](C)[C@H](CC[C@@H]3C[C@@H](O)CC(=O)O3)[C@H]21 [compactin]
- rate and extent of the burst, fractions from compactin-pretreated cells (10 μM compactin, compactin cytosol + compactin membrane, 100 μM SDS): less than 10 % of control values
- Rate of O2 formation [1]: 0.1 nmol/min
- Rate, percent of respective untreated HL-60 sample [1]: 1%
- Rate of O2 formation [2]: 1.1 nmol/min
- Rate, percent of respective untreated HL-60 sample [2]: 33%
- Rate of O2 formation [3]: 1.9 nmol/min
- Rate, percent of respective untreated HL-60 sample [3]: 95%
- Rate of O2 formation [4]: 0.4 nmol/min
- Rate, percent of respective untreated HL-60 sample [4]: 5%
- Rate of O2 formation [5]: 1.5 nmol/min
- Rate, percent of respective untreated HL-60 sample [5]: 37%
- Rate of O2 formation [6]: 2.6 nmol/min
- Rate, percent of respective untreated HL-60 sample [6]: 100%
- Rate of O2 formation [7]: 2.4 nmol/min
- Rate, percent of respective untreated HL-60 sample [7]: 47%
- Rate of O2 formation [8]: 4.0 nmol/min
- Rate, percent of respective untreated HL-60 sample [8]: 98%
- rate of O2- formation relative to untreated HL-60 cytosol (compactin cytosol + neutrophil membrane): about one-third
- lag period after addition of SDS (compactin cytosol + neutrophil membrane, FIG. 2): marked increase
- rate of O2- formation with membrane from compactin-treated cells (compactin membrane + neutrophil cytosol, versus untreated): essentially identical
- ability of cytosol to support oxidative response (cytosol from compactin-treated cells): largely defective
- ability of membrane fraction to support respiratory burst (membrane from compactin-treated cells): fully support a normal respiratory burst
